From ChEMBL document CHEMBL3244339, “Antitumor 1-(X-aryl)-3,3-dialkyltriazenes. 1. Quantitative structure-activity relationships vs. L1210 leukemia in mice” (J Med Chem, 1978) come the findings set out here.

Structures are written as SMILES.

The subject of the first series is L1210. Kind of series: Antitumor activity against mouse L1210 cells allografted in mouse assessed as increase of host lifespan. Format: functional.
Settings: not given
In the case of `CC(=O)Nc1ccc(/N=N/N(C)C)cc1`, the “log(1/C)” value came out at 4.04.

In the case of `CN(C)/N=N/c1ccc(C(N)=O)cc1C(N)=O`, the “log(1/C)” value is 3.27.

Take `CC(C)CN(C)/N=N/c1nc[nH]c1C(N)=O`: the “log(1/C)” value was determined as 3.51.

For `CCOC(=O)c1ccc(/N=N/N(C)CC(C)C)cc1`, the “log(1/C)” value worked out at 2.8.

Consider `CCCN(C)/N=N/c1nc[nH]c1C(N)=O`, for which the “log(1/C)” value amounted to 3.58.

With `CN(C)/N=N/c1ccc(CCCC(=O)NN)cc1`, the “log(1/C)” value amounted to 3.6.

With `CN(CCO)/N=N/c1ccccc1C(N)=O`, the “log(1/C)” value is on record as 3.07.

With `CCCN(C)/N=N/c1ccccc1C(N)=O`, the “log(1/C)” value came to 3.26.

Turning to `Cc1cccc(/N=N/N(C)C)c1`, the “log(1/C)” value was 3.4.

As for `CC(C)N(C)/N=N/c1ccc(C(N)=O)cc1`, the “log(1/C)” value came to 3.17.

`CN(C)/N=N/c1ccc(S(=O)(=O)Nc2ncccn2)cc1`: the “log(1/C)” value is on record as 3.74.

`CN(C)/N=N/c1ccccc1[N+](=O)[O-]`: the “log(1/C)” value worked out at 3.28.

As to `CN/N=N/c1nc[nH]c1C(=O)N1CCCC1`, the “log(1/C)” value is 3.28.

Consider `CCCCCCCCOC(=O)c1[nH]cnc1/N=N/N(C)C`, for which the “log(1/C)” value is on record as 3.06.

For `COc1ccc(/N=N/N(C)C(=O)c2ccccc2)cc1`, the “log(1/C)” value was determined as 3.05.

As for `CCOC(=O)c1ccc(/N=N/N(C)CC)cc1`, the “log(1/C)” value is 3.01.

As to `C=CCN(C)/N=N/c1ccccc1C(N)=O`, the “log(1/C)” value is 3.43.

As to `CCN(C)/N=N/c1ccc(NC(N)=O)cc1`, the “log(1/C)” value came out at 3.87.

For the compound `CCCCN(C)/N=N/c1ccccc1C(=O)O`, the “log(1/C)” value is 3.15.

As to `CN(Cc1ccccc1)/N=N/c1ccccc1`, the “log(1/C)” value was found to be 3.03.

Regarding `Cc1[nH]nc(C(N)=O)c1/N=N/N(C)C`, the “log(1/C)” value came out at 3.84.

`CCOC(=O)c1c[nH]nc1/N=N/N(C)C`: the “log(1/C)” value is given as 3.35.

For the compound `CN(C)/N=N/c1c[nH]nc1C(N)=O`, the “log(1/C)” value stood at 3.42.

Take `CCCCN(C)/N=N/c1ccccc1C(N)=O`: the “log(1/C)” value came to 3.1.

In the case of `CCCCN(C)/N=N/c1ccc(CCC(=O)OCC)cc1`, the “log(1/C)” value was found to be 3.02.

For the compound `CC(C)Cc1nc(/N=N/N(C)C)c(C(N)=O)[nH]1`, the “log(1/C)” value is 3.53.

On to `CN(C)/N=N/c1ccc(C#N)cc1C(N)=O`, for which the “log(1/C)” value came to 3.46.

For the compound `CN(C)/N=N/c1ccc(C(N)=O)cc1`, the “log(1/C)” value is on record as 3.51.

For `CN(/N=N/c1ccccc1C(=O)NN)C1CCCCC1`, the “log(1/C)” value was 2.99.

As for `CCCN(C)/N=N/c1n[nH]cc1C(N)=O`, the “log(1/C)” value is recorded as 3.7.

With `CCCc1nc(/N=N/N(C)C)c(C(N)=O)[nH]1`, the “log(1/C)” value was determined as 3.42.

In the case of `CN(C)/N=N/c1ccc([N+](=O)[O-])cc1C(N)=O`, the “log(1/C)” value came out at 3.26.

Take `Cc1ccc(/N=N/N(C)C)cc1`: the “log(1/C)” value was 3.76.

With `CC(=O)c1cccc(/N=N/N(C)C)c1`, the “log(1/C)” value is 3.58.

Consider `C=CCN(C)/N=N/c1ccc(NC(N)=O)cc1`, for which the “log(1/C)” value is recorded as 3.77.

For the compound `CN(C)/N=N/c1ccc(C(=O)O)cc1`, the “log(1/C)” value amounted to 3.22.

Turning to `CCCCCCCCN(C)/N=N/c1ccc(C(N)=O)cc1`, the “log(1/C)” value came out at 2.84.

With `CN(C)/N=N/c1c(F)cccc1F`, the “log(1/C)” value is 3.63.

For `CN(C)/N=N/c1ccccc1C(=O)O`, the “log(1/C)” value is listed as 3.64.

For the compound `CN(CCO)/N=N/c1[nH]cnc1C(N)=O`, the “log(1/C)” value turned out to be 3.12.

Turning to `CCCCOC(=O)c1[nH]cnc1/N=N/N(C)C`, the “log(1/C)” value turned out to be 3.53.

Turning to `CCCCCN(C)/N=N/c1nc[nH]c1C(N)=O`, the “log(1/C)” value is recorded as 3.58.

`CCOC(=O)c1[nH]cnc1/N=N/N(C)CCO`: the “log(1/C)” value was found to be 3.38.

Turning to `CCCCN(C)/N=N/c1n[nH]cc1C(N)=O`, the “log(1/C)” value is recorded as 3.81.

Consider `Cc1nc(/N=N/N(C)C)c(C(N)=O)[nH]1`, for which the “log(1/C)” value was determined as 3.06.

`CN(CCc1ccccc1)/N=N/c1nc[nH]c1C(N)=O`: the “log(1/C)” value is 3.49.

For the compound `CN(C)/N=N/c1ccc(NC=O)cc1`, the “log(1/C)” value was determined as 3.85.

With `CN(C)/N=N/c1c(Cl)cc(Cl)cc1C(N)=O`, the “log(1/C)” value came out at 3.14.

Take `CN(/N=N/c1nc[nH]c1C(N)=O)c1cccs1`: the “log(1/C)” value worked out at 3.87.

As for `CCCCCCCCN(C)/N=N/c1ccc(Cl)cc1C(=O)O`, the “log(1/C)” value came out at 3.14.

Regarding `CCCCN(C)/N=N/c1c(C(N)=O)n[nH]c1C`, the “log(1/C)” value worked out at 3.83.

`CN(/N=N/c1ccc(C(N)=O)cc1)c1cccs1`: the “log(1/C)” value was found to be 2.9.

For `CCN(C)/N=N/c1ccc(C(N)=O)cc1`, the “log(1/C)” value was found to be 3.66.

Take `COc1ccc(CN(C)/N=N/c2ccc(C#N)cc2)cc1`: the “log(1/C)” value is given as 2.72.

Take `CN(C)/N=N/c1cccc(C(N)=O)c1`: the “log(1/C)” value is listed as 3.8.

Regarding `C#CCN(C)/N=N/c1nc[nH]c1C(N)=O`, the “log(1/C)” value was 3.61.

On to `COC(=O)c1ccccc1/N=N/N(C)CC(C)C`, for which the “log(1/C)” value was found to be 3.12.

Turning to `CN(CCc1ccccc1)/N=N/c1n[nH]cc1C(N)=O`, the “log(1/C)” value was 3.52.

On to `CN(C)/N=N/c1[nH]cnc1C(N)=O` [DACARBAZINE], for which the “log(1/C)” value is listed as 3.29.

Consider `COC(=O)c1cccc(/N=N/N(C)C)c1`, for which the “log(1/C)” value was 3.42.

For `C/N=N/Nc1ccccc1`, the “log(1/C)” value amounted to 3.6.

For `CN(C)/N=N/c1cc(Cl)cc(C(N)=O)c1Cl`, the “log(1/C)” value was 3.04.

For `CCOC(=O)CCCc1ccc(/N=N/N(C)C)cc1`, the “log(1/C)” value turned out to be 3.54.

Regarding `CN/N=N/c1nc[nH]c1C(=O)OC`, the “log(1/C)” value turned out to be 3.35.

For the compound `CCOC(=O)c1[nH]c(-c2ccccc2)nc1/N=N/N(C)C`, the “log(1/C)” value was 3.48.

Turning to `COC(=O)c1n[nH]c(C(C)C)c1/N=N/N(C)C`, the “log(1/C)” value was determined as 3.3.

As for `CCOC(=O)c1nc(C)[nH]c1/N=N/N(C)C`, the “log(1/C)” value came to 3.35.

`CN(CCO)/N=N/c1n[nH]cc1C(N)=O`: the “log(1/C)” value is recorded as 3.1.

Consider `CCCCN(C)/N=N/c1n[nH]cc1C(=O)OCC`, for which the “log(1/C)” value was 3.16.

Turning to `C=CCN(C)/N=N/c1n[nH]cc1C(N)=O`, the “log(1/C)” value stood at 3.77.

Regarding `CCCCN(C)/N=N/c1[nH]cnc1C(N)=O`, the “log(1/C)” value was 3.54.

On to `COC(=O)c1ccc(/N=N/N(C)C)cc1`, for which the “log(1/C)” value is reported as 3.2.

For `CCNC(=O)c1ccccc1/N=N/N(C)C`, the “log(1/C)” value is reported as 2.92.

For the compound `CCCCN(C)/N=N/c1ccc([N+](=O)[O-])cc1C(N)=O`, the “log(1/C)” value came to 3.08.

As for `COC(=O)c1[nH]cnc1/N=N/N(C)C`, the “log(1/C)” value turned out to be 3.86.

With `CN(C)/N=N/c1cccnc1`, the “log(1/C)” value is 3.46.

Consider `CN(C)/N=N/c1ccc(S(N)(=O)=O)cc1C(N)=O`, for which the “log(1/C)” value is 3.32.

With `CN(C)/N=N/c1nc(Cc2ccccc2)[nH]c1C(N)=O`, the “log(1/C)” value came out at 2.89.

For another series, the species on record is Mus musculus. Kind of series: Toxicity in mouse L1210 cells allografted mouse assessed as mortality up to 5 days. The class given is organism-based. The conditions noted are these: l1210, 120 h.
In the case of `CN(C)/N=N/c1ccc(Cl)cc1`, the Activity entry is on record as “Toxic”.

As to `CN(C)/N=N/c1ccc([N+](=O)[O-])cc1`, the Activity result was “Toxic”.

For the compound `C=CCN(CC=C)/N=N/c1ccc(C(N)=O)cc1`, the Activity result is recorded as “Toxic”.

As to `CN/N=N/c1ccc(C)cc1`, the Activity result is “Toxic”.

For the compound `CON(C)/N=N/c1ccc(C(N)=O)cc1`, the Activity entry is “Toxic”.

Regarding `COc1ccc(/N=N/N(C)C)c(C(=O)O)c1`, the Activity result is “Toxic”.

As for `CN(C)/N=N/c1cccc(Cl)c1`, the Activity entry is recorded as “Toxic”.
